{"source": "patent US8586611B2", "about": "(priority 2005, dated 2013)", "type_in_all_cases": "in vivo", "key": {"Phytophthora infestans [1]": {"system": "Phytophthora infestans", "assay": "whole plant or invertebrate", "settings": "tomato late blight"}, "Phytophthora infestans [2]": {"system": "Phytophthora infestans", "assay": "whole plant or invertebrate", "settings": "tomato late blight", "remark": "listed apart in the source"}, "[3]": {"system": "Erysiphe graminis f. sp. tritici", "assay": "Test E: wheat powdery mildew, spray the day before inoculation (disease rating, 100 = 100% disease control)", "how_it_was_run": "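Wheat seedlings sprayed to run-off with compound suspended in acetone/water 50/50 with 250 ppm Trem 014 (200 ppm equivalent to 500 g/ha); inoculated next day with Erysiphe graminis f. sp. tritici spore dust. Kept 7 days at 20° C, then rated 0–100% disease control versus controls.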"}, "Plasmopara viticola": {"system": "Plasmopara viticola", "assay": "Test B: grape downy mildew, spray 24 h after inoculation (disease rating, 100 = 100% disease control)", "how_it_was_run": "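Grape seedlings were inoculated with Plasmopara viticola and held 24 h saturated at 20 °C, then sprayed to run-off with compound suspension (acetone/water with 250 ppm Trem 014; 200 ppm ≈ 500 g/ha). After 5 days at 20 °C and 24 h saturation, disease was rated from 0 to 100% control versus untreated.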"}, "[4]": {"settings": "spray the day before inoculation, compounds without asterisk (not 40 or 10 ppm)"}, "[5]": {"settings": "spray 17 h after inoculation, compounds without asterisk (not 40 or 10 ppm)"}, "[6]": {"settings": "spray 24 h after inoculation, compounds without asterisk (not 40 or 10 ppm)"}, "[7]": {"settings": "spray the day before inoculation, tested at 10 ppm"}, "[8]": {"settings": "spray 17 h after inoculation, tested at 10 ppm"}, "[9]": {"settings": "spray 24 h after inoculation, tested at 10 ppm"}, "[10]": {"settings": "sprayed the day before inoculation, tested at 10 ppm (**)"}, "[11]": {"settings": "sprayed 17 h after inoculation, tested at 10 ppm (**)"}, "[12]": {"settings": "sprayed the day before inoculation, 7 days at 20° C., tested at 10 ppm (**)"}, "[13]": {"settings": "sprayed 24 h after inoculation, tested at 10 ppm (**)"}, "[14]": {"settings": "sprayed the day before inoculation, unmarked compounds (no asterisk, not 40 or 10 ppm)"}, "[15]": {"settings": "sprayed 17 h after inoculation, unmarked compounds (no asterisk, not 40 or 10 ppm)"}, "[16]": {"settings": "sprayed the day before inoculation, 7 days at 20° C., unmarked compounds (no asterisk, not 40 or 10 ppm)"}, "[17]": {"settings": "sprayed 24 h after inoculation, unmarked compounds (no asterisk, not 40 or 10 ppm)"}}}
{"smiles": "Cc1cc(C(F)(F)F)nn1CC(=O)N1CCC(c2nc(C(=O)N(C)[C@H](C(N)=O)c3ccccc3)cs2)CC1", "note": "[compound 247]", "values": [{"measurement": "Test C disease rating (100 = 100% disease control, 0 = no disease control)", "setting": "Phytophthora infestans [1]; [4]", "value": 90, "unit": "%"}, {"measurement": "Test D disease rating (100 = 100% disease control, 0 = no disease control)", "setting": "Phytophthora infestans [2]; [5]", "value": 17, "unit": "%"}, {"measurement": "Test E disease rating (100 = 100% disease control, 0 = no disease control)", "setting": "[3]; [4]", "value": 0, "unit": "%"}, {"measurement": "Test B disease rating (100 = 100% disease control, 0 = no disease control)", "setting": "Plasmopara viticola; [6]", "value": 0, "unit": "%"}]}
{"smiles": "Cc1cc(C(F)(F)F)nn1CC(=O)N1CCC(c2nc(C(=O)N(C)Cc3ccccc3)cs2)CC1", "note": "[compound 248]", "values": [{"measurement": "Test C disease rating (100 = 100% disease control, 0 = no disease control)", "setting": "Phytophthora infestans [1]; [4]", "value": 100, "unit": "%"}, {"measurement": "Test D disease rating (100 = 100% disease control, 0 = no disease control)", "setting": "Phytophthora infestans [2]; [5]", "value": 80, "unit": "%"}, {"measurement": "Test E disease rating (100 = 100% disease control, 0 = no disease control)", "setting": "[3]; [4]", "value": 53, "unit": "%"}, {"measurement": "Test B disease rating (100 = 100% disease control, 0 = no disease control)", "setting": "Plasmopara viticola; [6]", "value": 88, "unit": "%"}]}
{"smiles": "Cc1cc(C(F)(F)F)nn1CC(=O)N1CCC(c2nc(C(=O)N(C)C(C)c3ccccc3F)cs2)CC1", "note": "(stereo not drawn) [compound 250]", "values": [{"measurement": "Test C disease rating (100 = 100% disease control, 0 = no disease control)", "setting": "Phytophthora infestans [1]; [7]", "value": 97, "unit": "%"}, {"measurement": "Test D disease rating (100 = 100% disease control, 0 = no disease control)", "setting": "Phytophthora infestans [2]; [8]", "value": 71, "unit": "%"}, {"measurement": "Test E disease rating (100 = 100% disease control, 0 = no disease control)", "setting": "[3]; [7]", "value": 0, "unit": "%"}, {"measurement": "Test B disease rating (100 = 100% disease control, 0 = no disease control)", "setting": "Plasmopara viticola; [9]", "value": 97, "unit": "%"}]}
{"smiles": "Cc1cc(C(F)(F)F)nn1CC(=O)N1CCC(c2nc(C(=O)N(C)C(C)c3ccccc3Cl)cs2)CC1", "note": "(stereo not drawn) [compound 251]", "values": [{"measurement": "Test C disease rating (100 = 100% disease control, 0 = no disease control)", "setting": "Phytophthora infestans [1]; [7]", "value": 100, "unit": "%"}, {"measurement": "Test D disease rating (100 = 100% disease control, 0 = no disease control)", "setting": "Phytophthora infestans [2]; [8]", "value": 97, "unit": "%"}, {"measurement": "Test E disease rating (100 = 100% disease control, 0 = no disease control)", "setting": "[3]; [7]", "value": 0, "unit": "%"}, {"measurement": "Test B disease rating (100 = 100% disease control, 0 = no disease control)", "setting": "Plasmopara viticola; [9]", "value": 100, "unit": "%"}]}
{"smiles": "Cc1cc(C(F)(F)F)nn1CC(=O)N1CCC(c2nc(C(=O)N(C)C(C)c3ccccc3Br)cs2)CC1", "note": "(stereo not drawn) [compound 252]", "values": [{"measurement": "Test C disease rating (100 = 100% disease control, 0 = no disease control)", "setting": "Phytophthora infestans [1]; [10]", "value": 99}, {"measurement": "Test D disease rating (100 = 100% disease control, 0 = no disease control)", "setting": "Phytophthora infestans [2]; [11]", "value": 85}, {"measurement": "Test E disease rating (100 = 100% disease control, 0 = no disease control)", "setting": "[3]; [12]", "value": 19}, {"measurement": "Test B disease rating (100 = 100% disease control, 0 = no disease control)", "setting": "Plasmopara viticola; [13]", "value": 99}]}
{"smiles": "Cc1cc(C(F)(F)F)nn1CC(=O)N1CCC(c2nc(C(=O)N(C)C(c3ccc(Cl)cc3)C(F)(F)F)cs2)CC1", "note": "(stereo not drawn) [compound 253]", "values": [{"measurement": "Test C disease rating (100 = 100% disease control, 0 = no disease control)", "setting": "Phytophthora infestans [1]; sprayed the day before inoculation, tested at 40 ppm (*)", "value": 90}, {"measurement": "Test D disease rating (100 = 100% disease control, 0 = no disease control)", "setting": "Phytophthora infestans [2]; sprayed 17 h after inoculation, tested at 40 ppm (*)", "value": 67}, {"measurement": "Test E disease rating (100 = 100% disease control, 0 = no disease control)", "setting": "[3]; sprayed the day before inoculation, 7 days at 20° C., tested at 40 ppm (*)", "value": 0}, {"measurement": "Test B disease rating (100 = 100% disease control, 0 = no disease control)", "setting": "Plasmopara viticola; sprayed 24 h after inoculation, tested at 40 ppm (*)", "value": 96}]}
{"smiles": "COc1ccccc1C(C)N(C)C(=O)c1csc(C2CCN(C(=O)Cn3nc(C(F)(F)F)cc3C)CC2)n1", "note": "(stereo not drawn) [compound 255]", "values": [{"measurement": "Test C disease rating (100 = 100% disease control, 0 = no disease control)", "setting": "Phytophthora infestans [1]; [10]", "value": 9}, {"measurement": "Test D disease rating (100 = 100% disease control, 0 = no disease control)", "setting": "Phytophthora infestans [2]; [11]", "value": 0}, {"measurement": "Test E disease rating (100 = 100% disease control, 0 = no disease control)", "setting": "[3]; [12]", "value": 0}, {"measurement": "Test B disease rating (100 = 100% disease control, 0 = no disease control)", "setting": "Plasmopara viticola; [13]", "value": 25}]}
{"smiles": "C[C@@H](NC(=O)c1csc(C2CCN(C(=O)Cc3cccc(Br)c3)CC2)n1)c1ccc(F)cc1", "note": "[compound 271]", "values": [{"measurement": "Test C disease rating (100 = 100% disease control, 0 = no disease control)", "setting": "Phytophthora infestans [1]; [14]", "value": 67}, {"measurement": "Test D disease rating (100 = 100% disease control, 0 = no disease control)", "setting": "Phytophthora infestans [2]; [15]", "value": 0}, {"measurement": "Test E disease rating (100 = 100% disease control, 0 = no disease control)", "setting": "[3]; [16]", "value": 0}, {"measurement": "Test B disease rating (100 = 100% disease control, 0 = no disease control)", "setting": "Plasmopara viticola; [17]", "value": 7}]}
{"smiles": "C[C@@H](NC(=O)c1csc(C2CCN(C(=O)Cc3cccc(Br)c3)CC2)n1)C1CCCCC1", "note": "[compound 272]", "values": [{"measurement": "Test C disease rating (100 = 100% disease control, 0 = no disease control)", "setting": "Phytophthora infestans [1]; [14]", "value": 50}, {"measurement": "Test D disease rating (100 = 100% disease control, 0 = no disease control)", "setting": "Phytophthora infestans [2]; [15]", "value": 0}, {"measurement": "Test E disease rating (100 = 100% disease control, 0 = no disease control)", "setting": "[3]; [16]", "value": 0}, {"measurement": "Test B disease rating (100 = 100% disease control, 0 = no disease control)", "setting": "Plasmopara viticola; [17]", "value": 14}]}
{"smiles": "C[C@@H](NC(=O)c1csc(C2CCN(C(=O)Cc3cccc(Br)c3)CC2)n1)c1ccc([N+](=O)[O-])cc1", "note": "[compound 273]", "values": [{"measurement": "Test C disease rating (100 = 100% disease control, 0 = no disease control)", "setting": "Phytophthora infestans [1]; [14]", "value": 0}, {"measurement": "Test D disease rating (100 = 100% disease control, 0 = no disease control)", "setting": "Phytophthora infestans [2]; [15]", "value": 0}, {"measurement": "Test E disease rating (100 = 100% disease control, 0 = no disease control)", "setting": "[3]; [16]", "value": 0}, {"measurement": "Test B disease rating (100 = 100% disease control, 0 = no disease control)", "setting": "Plasmopara viticola; [17]", "value": 44}]}
{"smiles": "Cc1ccc([C@@H](C)NC(=O)c2csc(C3CCN(C(=O)Cc4cccc(Br)c4)CC3)n2)cc1", "note": "[compound 274]", "values": [{"measurement": "Test C disease rating (100 = 100% disease control, 0 = no disease control)", "setting": "Phytophthora infestans [1]; [14]", "value": 37}, {"measurement": "Test D disease rating (100 = 100% disease control, 0 = no disease control)", "setting": "Phytophthora infestans [2]; [15]", "value": 0}, {"measurement": "Test E disease rating (100 = 100% disease control, 0 = no disease control)", "setting": "[3]; [16]", "value": 0}, {"measurement": "Test B disease rating (100 = 100% disease control, 0 = no disease control)", "setting": "Plasmopara viticola; [17]", "value": 29}]}
{"smiles": "C[C@@H](NC(=O)c1csc(C2CCN(C(=O)Cc3cccc(Br)c3)CC2)n1)c1ccccc1F", "note": "[compound 276]", "values": [{"measurement": "Test C disease rating (100 = 100% disease control, 0 = no disease control)", "setting": "Phytophthora infestans [1]; [14]", "value": 17}, {"measurement": "Test D disease rating (100 = 100% disease control, 0 = no disease control)", "setting": "Phytophthora infestans [2]; [15]", "value": 0}, {"measurement": "Test E disease rating (100 = 100% disease control, 0 = no disease control)", "setting": "[3]; [16]", "value": 0}, {"measurement": "Test B disease rating (100 = 100% disease control, 0 = no disease control)", "setting": "Plasmopara viticola; [17]", "value": 30}]}
